Results: patent US8324250B2 (Hoffmann-La Roche Inc., priority 2009, dated 2012)

Target: T1, recombinant human NK3 receptor (Homo sapiens, UniProt P29371)
T1 construct: expressed in transfected cells; host or cells: HEK293 cells (transient expression), membranes
T1 sequence (P29371 1-465): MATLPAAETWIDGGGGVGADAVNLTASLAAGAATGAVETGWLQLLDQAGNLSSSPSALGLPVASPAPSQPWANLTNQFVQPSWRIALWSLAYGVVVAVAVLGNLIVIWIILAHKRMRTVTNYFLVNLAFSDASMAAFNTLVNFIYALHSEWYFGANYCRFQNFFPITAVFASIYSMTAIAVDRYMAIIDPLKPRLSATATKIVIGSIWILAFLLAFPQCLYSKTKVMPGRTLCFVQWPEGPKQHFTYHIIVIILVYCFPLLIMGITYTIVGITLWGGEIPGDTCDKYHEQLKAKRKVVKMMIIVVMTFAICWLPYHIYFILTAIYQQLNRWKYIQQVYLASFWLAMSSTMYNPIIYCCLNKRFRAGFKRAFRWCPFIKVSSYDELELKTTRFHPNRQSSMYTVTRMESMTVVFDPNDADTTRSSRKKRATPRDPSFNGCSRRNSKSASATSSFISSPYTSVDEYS
Assay: [3H]SR142801 competition binding assay
Details: membranes from HEK293 cells transiently expressing recombinant human NK3 receptor; [3H]SR142801 radioligand; 75 min at RT; Ki by Cheng-Prussoff; read-out: Data Ki (hNK-3 receptor affinity)
Procedure, shortened: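 Membranes from HEK293 cells transiently expressing the receptor, 5 μg protein/well, in 50 mM Tris-HCl pH 7.4 with 4 mM MnCl2, 1 μM phosphoramidon, 0.1% BSA; nonspecific binding defined with 10 μM SB222200. Filtration and scintillation counting; IC50 from Hill fit, Ki by Cheng-Prussoff using saturation-derived KD, duplicates.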

Compound	Ki
Cc1noc(C2CCN(C(=O)N3CCC(C(=O)N[C@@H](C)c4ccccc4)(c4ccccc4)CC3)CC2)n1 [Example 214, 1-[4-(3-Methyl-[1,2,4]oxadiazol-5-yl)-piperidine-1-carbonyl]-4-phenyl-piperidine-4-carboxylic acid ((S)-1-phenyl-ethyl)-amide]	9 nM
O=C(N1CCN(c2ccc(F)cc2)CC1)N1CCC(C(=O)N[C@H](c2cccc(F)c2)C2CC2)(c2ccc(F)cc2)CC1 [Example 199, 4-(4-Fluoro-phenyl)-1-[4-(4-fluoro-phenyl)-piperazine-1-carbonyl]-piperidine-4-carboxylic acid [(S)-cyclopropyl-(3-fluoro-phenyl)-methyl]-amide]	5.1 nM
C[C@H](NC(=O)C1(c2ccccc2)CCN(C(=O)N2CCN(c3ccc(S(C)(=O)=O)cc3F)CC2)CC1)c1ccccc1 [Example 211, 1-[4-(2-Fluoro-4-methanesulfonyl-phenyl)-piperazine-1-carbonyl]-4-phenyl-piperidine-4-carboxylic acid ((S)-1-phenyl-ethyl)-amide]	29.4 nM
C[C@H](NC(=O)C1(c2ccc(F)cc2)CCN(C(=O)C2CCN(c3ccc(C#N)cn3)CC2)CC1)c1cccc(F)c1 [Example 155, 1-(5′-Cyano-3,4,5,6-tetrahydro-2H-[1,2′]bipyridinyl-4-carbonyl)-4-(4-fluoro-phenyl)-piperidine-4-carboxylic acid [(S)-1-(3-fluoro-phenyl)-ethyl]-amide]	75 nM
C[C@H](NC(=O)C1(c2ccc(F)cc2)CCN(C(=O)c2ccc(-c3ccc(F)cc3)cc2)CC1)C1CCCCC1 [Example 92, 1-(4′-Fluoro-biphenyl-4-carbonyl)-4-(4-fluoro-phenyl)-piperidine-4-carboxylic acid ((S)-1-cyclohexyl-ethyl)-amide]	5.1 nM
C[C@H](NC(=O)C1(c2ccccc2)CCN(C(=O)c2csc(-c3cccnc3)n2)CC1)c1ccccc1 [Example 28, 4-Phenyl-1-(2-pyridin-3-yl-thiazole-4-carbonyl)-piperidine-4-carboxylic acid ((S)-1-phenyl-ethyl)-amide]	76.2 nM
C[C@H](NC(=O)C1(C2CCCC2)CCN(C(=O)c2ccc(-c3ccc(F)cc3)cc2)CC1)c1ccc(F)cc1 [Example 110, 4- Cyclopentyl-1-(4′-fluoro-biphenyl-4-carbonyl)-piperidine-4-carboxylic acid [(S)-1-(4-fluoro-phenyl)-ethyl]-amide]	52.2 nM
Cc1ccc(-c2nc(C(=O)N3CCC(C(=O)N[C@@H](C)c4ccccc4)(c4ccccc4)CC3)cs2)cc1 [Example 21, 4-Phenyl-1 - (2-p-tolyl-thiazole-4-carbonyl)-piperidine-4-carboxylic acid ((S)-1-phenyl-ethyl)-amide]	99.8 nM
Cc1ccc(N2CCN(C(=O)N3CCC(C(=O)N[C@@H](C)c4ccccc4)(c4ccccc4)CC3)CC2)cc1 [Example 208, 4-Phenyl-1-(4-p-tolyl-piperazine-1-carbonyl)-piperidine-4-carboxylic acid ((S)-1-phenyl-ethyl)-amide]	70.9 nM
CC(C)C(NC(=O)C1(c2ccc(F)cc2)CCN(C(=O)C2CCN(c3ccc(C#N)cn3)CC2)CC1)c1ccc(F)cc1 (stereo not shown) [Example 153, 1-(5′-Cyano-3,4,5,6-tetrahydro-2H-[1,2′]bipyridinyl-4-carbonyl)-4-(4-fluoro-phenyl)-piperidine-4-carboxylic acid [1-(4-fluoro-phenyl)-2-methyl-propyl]-amide]	38 nM
Cc1ccccc1N1CCN(C(=O)N2CCC(C(=O)N[C@@H](C)c3ccccc3)(c3ccccc3)CC2)CC1 [Example 229, 4-Phenyl-1-(4-o-tolyl-piperazine-1-carbonyl)-piperidine-4-carboxylic acid ((S)-1-phenyl-ethyl)-amide]	34.9 nM
CC[C@H](NC(=O)C1(c2ccccc2)CCN(C(=O)c2ccc(N3CCS(=O)(=O)CC3)cc2)CC1)c1ccccc1 [Example 84, 1-[4-(1,1-Dioxo-1λ6-thiomor-pholin-4-yl)-benzoyl]-4-phenyl-piperidine-4-carboxylic acid ((S)-1-phenyl-propyl)-amide]	2.8 nM
Cc1noc(-c2ccc(C(=O)N3CCC(C(=O)N[C@@H](C)c4ccc(F)cc4)(C4CCCC4)CC3)cc2)n1 [Example 111, 4- Cyclopentyl-1-[4-(3-methyl-[1,2,4]oxa-diazol-5-yl)-benzoyl]-piperidine-4-carboxylic acid [(S)-1-(4-fluoro-phenyl)-ethyl]-amide]	39.8 nM
C[C@H](NC(=O)C1(c2ccccc2)CCN(C(=O)C2CCC(c3ccc(Cl)cc3)CC2)CC1)c1ccccc1 (stereo partly drawn) [Example 3, 1-[4-(4- Chlorophenyl)cyclohexanecarbonyl]-4-phenyl-piperidine-4-carboxylic acid ((S)-1-phenyl-ethyl)-amide]	48.2 nM
O=C(c1ccc(-c2ccc(F)cc2)cc1)N1CCC(C(=O)NCC2CCCCC2)(c2ccc(F)cc2)CC1 [Example 142, 1-(4′-Fluoro-biphenyl-4-carbonyl)-4-(4-fluoro-phenyl)-piperidine-4-carboxylic acid cyclohexylmethyl-amide]	38.2 nM
Cc1noc(-c2ccc(C(=O)N3CCC(C(=O)NC(c4ccc(F)cc4)C(F)(F)F)(c4ccc(F)cc4)CC3)cc2)n1 (stereo not shown) [Example 200, 4-(4-Fluoro-phenyl)-1-[4-(3-methyl-[1,2,4]oxadiazol-5-yl)-benzoyl]-piperidine-4-carboxylic acid [2,2,2-trifluoro-1-(4-fluoro-phenyl)-ethyl]-amide]	15 nM
C[C@H](NC(=O)C1(c2ccccc2)CCN(C(=O)c2ccc(-c3ccccc3)nc2)CC1)c1ccccc1 [Example 56]	20.6 nM
CC(=O)c1ccc(-c2ccc(C(=O)N3CCC(C(=O)N[C@@H](C)c4ccccc4)(c4ccccc4)CC3)cc2)cc1 [Example 59, 1-(4′-Acetyl-biphenyl-4-carbonyl)-4-phenyl-piperidine-4-carboxylic acid ((S)-1-phenyl-ethyl)-amide]	37 nM
CC(=O)c1cccc(-c2ccc(C(=O)N3CCC(C(=O)N[C@@H](C)c4ccccc4)(c4ccccc4)CC3)cc2)c1 [Example 60, 1-(3′-Acetyl-biphenyl-4-carbonyl)-4-phenyl-piperidine-4-carboxylic acid ((S)-1-phenyl-ethyl)-amide]	31.5 nM
C[C@H](NC(=O)C1(c2ccccc2)CCN(C(=O)N2CCN(c3ccc(C#N)cn3)CC2)CC1)c1ccccc1 [Example 227, 1-[4-(5-Cyano-pyridin-2-yl)-piperazine-1-carbonyl]-4-phenyl-piperidine-4-carboxylic acid ((S)-1-phenyl-ethyl)-amide]	24.9 nM
C[C@H](NC(=O)C1(c2ccccc2)CCN(C(=O)c2ccc(-c3ccccc3)cn2)CC1)c1ccccc1 [Example 38, 4-Phenyl-1-(5-phenyl-pyridine-2-carbonyl)-piperidine-4-carboxylic acid ((S)-1-phenyl-ethyl)-amide]	21.4 nM
C[C@H](NC(=O)C1(c2ccc(F)cc2)CCN(C(=O)N2CCN(c3ccc(F)cc3)CC2)CC1)c1ccc(F)cc1 [Example 179, 4-(4-Fluoro-phenyl)-1-[4-(fluoro-phenyl)-piperazine-1-carbonyl]-piperidine-4-carboxylic acid [(S)-1-(4-fluoro-phenyl)-ethyl]-amide]	18 nM
Cc1noc(-c2ccc(C(=O)N3CCC(C(=O)NC(C)c4ccc(F)c(C(F)(F)F)c4)(c4ccc(F)cc4)CC3)cc2)n1 (stereo not shown) [Example 162, 4-(4-Fluoro-phenyl)-1-[4-(3-methyl-[1,2,4]oxadiazol-5-yl)-benzoyl]-piperidine-4-carboxylic acid [1-(4-fluoro-3-trifluoromethyl-phenyl)-ethyl]-amide]	75 nM
C[C@H](NC(=O)C1(c2ccccc2)CCN(C(=O)N2CCC(N3CCCCC3=O)CC2)CC1)c1ccccc1 [Example 216, 1-(2-Oxo-[1,4′]bipiperidinyl-1′-carbonyl)-4-phenyl-piperidine-4-carboxylic acid ((S)-1-phenyl-ethyl)-amide]	17.2 nM
Cc1nc(-c2ccc(C(=O)N3CCC(C(=O)NC(c4ccc(F)cc4)C(C)C)(c4ccc(F)cc4)CC3)cc2)no1 (stereo not shown) [Example 164, 4-(4-Fluoro-phenyl)-1-[4-(5-methyl-[1,2,4]oxadiazol-3-yl)-benzoyl]-piperidne-4-carboxylic acid [1-(4-fluoro-phenyl)-2-methyl-propyl]-amide]	12 nM
CC(C)C(NC(=O)C1(c2ccc(F)cc2)CCN(C(=O)c2ccc(-c3ccc(F)cc3)cc2)CC1)c1ccc(F)cc1 (stereo not shown) [Example 144, 1-(4′-Fluoro-biphenyl-carbonyl)-4-(4-fluoro-phenyl)-piperidne-4-carboxylic acid [1-(4-fluoro-phenyl)-2-methyl-propyl]-amide]	10.9 nM
Cc1noc(-c2ccc(C(=O)N3CCC(C(=O)N[C@@H](C)C4CCCCC4)(c4ccc(F)cc4)CC3)cc2)n1 [Example 90]	2.6 nM
C[C@H](NC(=O)C1(c2ccccc2)CCN(C(=O)c2cnc(-c3ccccc3)nc2)CC1)c1ccccc1 [Example 52, 4-Phenyl-1-(2-phenyl-pyrimidine-5-carbonyl)-piperidine-4-carboxylic acid ((S)-1-phenyl-ethyl)-amide]	24.1 nM
